Source: publication PMC6367750 (Future Medicinal Chemistry, 2018)
Like-named read-outs stand apart in the source and are kept apart here.

Key:
MV4–11 [1] = details: cited from earlier work
Molm13 = details: cited from earlier work
MV4–11 [2] = experiment: Antiproliferative activity, CellTiter-Blue; assay type: cell-based; details: for AML cell growth inhibition: SAR discussion of Table 1
FLT3-ITD [3] = target: T1, FLT3-ITD (Homo sapiens, UniProt P36888, ITD); experiment: FLT3-ITD kinase inhibition, ADP-Glo kinase assay; assay type: biochemical; details: read-out: %FLT3 inhibition FLT3-ITD
T1 sequence (P36888 564-993): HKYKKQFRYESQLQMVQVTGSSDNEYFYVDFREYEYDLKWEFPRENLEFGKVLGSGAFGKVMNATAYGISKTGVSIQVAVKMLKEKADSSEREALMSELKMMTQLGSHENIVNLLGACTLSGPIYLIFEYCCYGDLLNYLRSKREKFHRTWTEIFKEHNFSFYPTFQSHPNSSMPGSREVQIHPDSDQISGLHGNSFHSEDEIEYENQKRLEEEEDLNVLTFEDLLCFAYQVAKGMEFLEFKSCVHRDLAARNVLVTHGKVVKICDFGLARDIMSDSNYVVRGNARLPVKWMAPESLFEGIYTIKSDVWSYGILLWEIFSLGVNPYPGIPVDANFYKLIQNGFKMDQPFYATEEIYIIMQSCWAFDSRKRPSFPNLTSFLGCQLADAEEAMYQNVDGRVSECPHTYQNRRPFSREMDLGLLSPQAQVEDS

Molm14 = experiment: Antiproliferative activity, CellTiter-Blue; assay type: cell-based
[4] = tested on: Molm13-res (FLT3 (ITD, D835Y)); experiment: Antiproliferative activity, CellTiter-Blue; assay type: cell-based; details: 72 h
FLT3-ITD [5] = target: T2, FLT3-ITD (Homo sapiens, UniProt P36888); experiment: FLT3-ITD kinase inhibition, ADP-Glo kinase assay; assay type: biochemical; details: SAR discussion of Table 1
T2 sequence (P36888 564-993): T1 sequence (P36888 564-993)

FLT3 D835Y = details: read-out: IC50 FLT3 D835Y; cited from earlier work
ABL1-phosphorylated = ABL1-phosphorylated (Homo sapiens, UniProt P00519); details: read-out: Kd ABL1-phosphorylated; KdELECT; ref Zimmerman et al. [28]; cited from earlier work
ABL1-nonphosphorylated = ABL1-nonphosphorylated (Homo sapiens, UniProt P00519); details: read-out: Kd ABL1-nonphosphorylated; KdELECT; ref Zimmerman et al. [28]; cited from earlier work
TOPK mRNA = experiment: Real-time PCR of TOPK mRNA in MV4–11 cells; assay type: cell-based; details: 24 h
TOPK = experiment: Western blot of TOPK protein in MV4–11 cells; assay type: cell-based
JAK3 = JAK3 (Homo sapiens, UniProt P52333); experiment: DiscoverX ScanEdge kinase profiling; assay type: binding; details: read-out: percent inhibition JAK3
JAK2 = JAK2 (Homo sapiens, UniProt O60674); experiment: DiscoverX ScanEdge kinase profiling; assay type: binding; details: read-out: percent inhibition JAK2
[6] = tested on: K562, NOMO-1, HL60 and MOLT4; experiment: Antiproliferative activity, non-FLT3-driven leukemia cell lines; assay type: cell-based; details: 72 h, read-out: IC50 range over non-FLT3-driven leukemia cell lines
MKNK2 = MKNK2 (Homo sapiens, UniProt Q9HBH9); experiment: DiscoverX ScanEdge kinase profiling; assay type: binding; details: read-out: percent inhibition MKNK2
FLT3 = target: T3, FLT3 (Homo sapiens, UniProt P36888); experiment: DiscoverX ScanEdge kinase profiling; assay type: binding; details: read-out: percent inhibition FLT3
T3 sequence (P36888 27-993): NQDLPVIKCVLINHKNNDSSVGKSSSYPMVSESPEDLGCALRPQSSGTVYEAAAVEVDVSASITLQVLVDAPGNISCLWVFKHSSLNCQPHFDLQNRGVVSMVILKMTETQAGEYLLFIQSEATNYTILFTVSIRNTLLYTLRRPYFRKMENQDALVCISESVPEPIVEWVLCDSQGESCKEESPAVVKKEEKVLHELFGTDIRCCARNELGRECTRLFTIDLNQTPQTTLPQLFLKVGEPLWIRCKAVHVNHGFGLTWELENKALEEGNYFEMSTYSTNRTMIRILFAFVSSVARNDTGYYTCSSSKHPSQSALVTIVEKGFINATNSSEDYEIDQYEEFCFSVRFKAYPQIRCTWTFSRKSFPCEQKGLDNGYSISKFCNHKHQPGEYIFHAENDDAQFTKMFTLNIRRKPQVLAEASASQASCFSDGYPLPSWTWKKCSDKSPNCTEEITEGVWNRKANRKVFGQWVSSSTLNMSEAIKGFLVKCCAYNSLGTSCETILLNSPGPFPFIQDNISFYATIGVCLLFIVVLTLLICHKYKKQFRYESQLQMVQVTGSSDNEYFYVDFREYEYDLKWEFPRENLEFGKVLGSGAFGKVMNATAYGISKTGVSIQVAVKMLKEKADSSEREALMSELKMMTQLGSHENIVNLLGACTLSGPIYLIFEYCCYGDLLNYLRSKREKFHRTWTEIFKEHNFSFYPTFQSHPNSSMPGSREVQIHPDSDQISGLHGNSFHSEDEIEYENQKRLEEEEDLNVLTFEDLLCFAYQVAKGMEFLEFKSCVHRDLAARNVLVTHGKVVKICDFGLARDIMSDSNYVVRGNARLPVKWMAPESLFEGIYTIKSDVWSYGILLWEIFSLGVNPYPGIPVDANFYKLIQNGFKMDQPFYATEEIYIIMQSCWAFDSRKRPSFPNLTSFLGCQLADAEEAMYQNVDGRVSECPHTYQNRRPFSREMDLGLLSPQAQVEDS

MV4–11 [7] = experiment: Cell cycle analysis; assay type: cell-based; details: MV4–11, 24 h
phospho-STAT5 = experiment: Western blot of phospho-STAT5 in MV4–11 cells; assay type: cell-based
c-Kit = details: read-out: IC50 c-Kit; cited from earlier work
[8] = Homo sapiens, MV4-11, 72 h, read-out: IC50 MV4–11, 72 h
[9] = Homo sapiens, MOLM-14, 72 h, read-out: IC50 Molm14, 72 h
[10] = read-out: IC50 Molm13-res, 72 h

ABL1-nonphosphorylated, sequence (P00519 whole entry): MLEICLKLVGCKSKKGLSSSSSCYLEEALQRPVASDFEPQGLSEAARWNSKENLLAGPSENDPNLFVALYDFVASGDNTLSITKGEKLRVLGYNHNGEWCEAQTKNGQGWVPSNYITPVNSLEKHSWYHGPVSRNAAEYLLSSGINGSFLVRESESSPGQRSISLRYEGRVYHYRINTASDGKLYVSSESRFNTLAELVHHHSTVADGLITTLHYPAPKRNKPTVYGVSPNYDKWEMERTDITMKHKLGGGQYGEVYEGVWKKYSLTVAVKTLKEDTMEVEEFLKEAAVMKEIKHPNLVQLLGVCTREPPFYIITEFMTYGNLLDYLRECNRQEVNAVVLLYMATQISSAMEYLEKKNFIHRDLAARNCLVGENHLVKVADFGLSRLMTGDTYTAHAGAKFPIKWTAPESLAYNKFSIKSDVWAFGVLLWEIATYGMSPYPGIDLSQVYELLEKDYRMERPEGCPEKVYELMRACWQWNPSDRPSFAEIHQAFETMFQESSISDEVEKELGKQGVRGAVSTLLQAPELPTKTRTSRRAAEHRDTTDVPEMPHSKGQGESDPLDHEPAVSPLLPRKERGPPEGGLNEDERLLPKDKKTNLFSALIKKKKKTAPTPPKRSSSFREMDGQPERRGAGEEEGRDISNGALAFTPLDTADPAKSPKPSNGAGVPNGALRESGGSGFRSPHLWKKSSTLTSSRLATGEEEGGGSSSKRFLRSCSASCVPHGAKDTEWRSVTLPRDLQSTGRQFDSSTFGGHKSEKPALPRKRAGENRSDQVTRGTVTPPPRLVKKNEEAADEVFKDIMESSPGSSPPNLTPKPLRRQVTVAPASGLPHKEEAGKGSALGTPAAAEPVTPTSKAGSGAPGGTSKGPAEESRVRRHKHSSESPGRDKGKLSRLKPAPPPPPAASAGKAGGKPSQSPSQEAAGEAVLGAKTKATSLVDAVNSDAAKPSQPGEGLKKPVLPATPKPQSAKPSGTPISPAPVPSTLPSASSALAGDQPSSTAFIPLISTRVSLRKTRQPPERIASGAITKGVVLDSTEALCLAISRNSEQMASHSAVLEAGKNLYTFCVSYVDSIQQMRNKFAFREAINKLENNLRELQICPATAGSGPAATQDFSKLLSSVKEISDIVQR
ABL1-phosphorylated, sequence (P00519 whole entry): as above
MKNK2, sequence (Q9HBH9 whole entry): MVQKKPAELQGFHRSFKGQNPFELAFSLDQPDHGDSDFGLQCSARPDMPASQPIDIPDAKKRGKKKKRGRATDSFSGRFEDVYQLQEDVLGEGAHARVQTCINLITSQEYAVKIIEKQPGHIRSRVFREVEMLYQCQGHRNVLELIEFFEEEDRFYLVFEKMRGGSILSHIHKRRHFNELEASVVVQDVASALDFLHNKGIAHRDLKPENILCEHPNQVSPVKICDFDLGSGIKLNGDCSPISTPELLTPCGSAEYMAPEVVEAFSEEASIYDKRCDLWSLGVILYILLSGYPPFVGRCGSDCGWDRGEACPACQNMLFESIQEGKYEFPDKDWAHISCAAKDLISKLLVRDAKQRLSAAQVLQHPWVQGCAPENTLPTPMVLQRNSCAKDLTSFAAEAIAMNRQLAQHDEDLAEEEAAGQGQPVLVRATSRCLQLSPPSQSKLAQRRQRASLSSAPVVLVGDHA
JAK3, sequence (P52333 813-1124 limits assumed): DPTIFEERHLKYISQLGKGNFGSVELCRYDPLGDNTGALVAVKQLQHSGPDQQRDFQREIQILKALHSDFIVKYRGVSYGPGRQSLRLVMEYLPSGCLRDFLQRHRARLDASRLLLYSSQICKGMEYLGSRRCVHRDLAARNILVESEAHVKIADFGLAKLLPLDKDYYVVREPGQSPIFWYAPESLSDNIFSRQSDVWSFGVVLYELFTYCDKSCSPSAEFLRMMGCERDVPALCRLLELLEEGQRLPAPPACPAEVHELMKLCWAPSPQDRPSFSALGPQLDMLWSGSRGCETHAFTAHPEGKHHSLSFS
JAK2, sequence (O60674 840-1132 limits assumed): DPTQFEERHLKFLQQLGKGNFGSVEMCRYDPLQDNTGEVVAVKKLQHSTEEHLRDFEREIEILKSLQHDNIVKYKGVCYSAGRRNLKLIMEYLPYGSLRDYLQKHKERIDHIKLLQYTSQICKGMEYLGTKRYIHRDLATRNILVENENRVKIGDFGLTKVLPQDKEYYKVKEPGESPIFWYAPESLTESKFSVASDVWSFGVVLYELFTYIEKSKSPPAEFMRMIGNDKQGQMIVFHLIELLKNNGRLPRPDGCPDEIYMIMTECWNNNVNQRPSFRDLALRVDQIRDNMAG

Compound	IC50 (MV4–11 [2]; [8]) [nM]	AML cell growth inhibition (MV4–11 [2])	inhibition at 0.1 µM (FLT3-ITD [3]) [%]	other results
Nc1ncc(-c2ccncc2)nc1Nc1ccc2[nH]ccc2c1 [AKN-028]				effect on cell cycle (MV4–11 [1]): induce arrest in the G0/1 phase
C[C@H]1CC[C@H](n2c3cnccc3c3cnc(Nc4ccc5c(n4)CCN(C(=O)CO)C5)nc32)CC1 [AMG 925]				effect on cell cycle (Molm13): induce arrest in the G0/1 phase
NC1CCc2c(c(-c3c[nH]nc3C(F)(F)F)nc3ccc4[nH]ncc4c23)C1 (stereo not drawn) [Compound 7]	132	less active	71	
Cc1n[nH]cc1-c1nc2ccc3[nH]ncc3c2c2c1CCCC2 [Compound 9]	61.5	potent inhibitors of AML proliferation	54	IC50 (Molm14; [9]): 64.1 nM; IC50 [4, 10]: 86.7 nM
c1[nH]nnc1-c1nc2ccc3[nH]ncc3c2c2c1CCCC2 [Compound 12]	154	not as active as HSD1169	56	
FC(F)(F)c1cc(-c2nc3ccc4[nH]ncc4c3c3c2CCCC3)n[nH]1 [Compound 13]	> 5000	inactive even at 1000 nM	5	
c1ccc(-c2n[nH]cc2-c2nc3ccc4[nH]ncc4c3c3c2CCCC3)cc1 [Compound 14]	1450		26	
c1cncc(-c2n[nH]cc2-c2nc3ccc4[nH]ncc4c3c3c2CCCC3)c1 [Compound 15]	1300	inactive compounds	6	
c1cc(-c2n[nH]cc2-c2nc3ccc4[nH]ncc4c3c3c2CCCC3)cs1 [Compound 17]	772	inactive compounds	19	
FC(F)(F)c1n[nH]cc1-c1nc2ccc3[nH]ccc3c2c2c1CCCC2 [Compound 19]	898	did not inhibit FLT3 enzymatic activity or AML cell growth	8	FLT3 enzymatic inhibition (FLT3-ITD [5]): did not inhibit FLT3 enzymatic activity
OCCn1cc(-c2nc3ccc4[nH]ncc4c3c3c2CCCC3)cn1 [Compound 20]	1390	inactive compounds	27	
CC1(COc2ccc3c(c2)ncn3-c2ccc3cccc(N4CCC(N)CC4)c3n2)COC1 [Crenolanib, crenolanib]				IC50 (FLT3 D835Y): 6.9 nM; Kd (ABL1-phosphorylated): 430 nM; Kd (ABL1-nonphosphorylated): 140 nM
FC(F)(F)c1n[nH]cc1-c1nc2ccc3[nH]ncc3c2c2c1CCCC2 [HSD1169]	5	potent inhibitors of AML proliferation	80	IC50 (Molm14; [9]): 5 nM; IC50 (Molm14; read-out: IC50 Molm14, 72 h, listed as 4 (HSD1169)): 4.9 nM; IC50 [4, 10]: 5 nM; IC50 ([4]; read-out: IC50 Molm13-res, listed as 4 (HSD1169)): 5.1 nM; TOPK mRNA level (TOPK mRNA): downregulation of TOPK mRNA; TOPK protein level (western blot, words) (TOPK): reduction of TOPK protein in a dose-dependent manner; inhibition at 0.5 µM (JAK3): > 90%; IC50 (MV4–11 [2]; read-out: IC50 MV4–11, 72 h, listed as 4 (HSD1169)): 5.4 nM; inhibition at 0.5 µM (JAK2): > 90%; IC50 [6]: 620 to 1860 nM; inhibition at 0.5 µM (MKNK2): > 90%; inhibition at 0.5 µM (FLT3): > 90%; effect on cell cycle (MV4–11 [7]): dose-dependent increase in the percentage of cells in the G0/1 phase; phosphorylation of STAT5 (western blot, words) (phospho-STAT5): inhibited the phosphorylation of STAT5
CO[C@@H]1[C@H](N(C)C(=O)c2ccccc2)C[C@H]2O[C@]1(C)n1c3ccccc3c3c4c(c5c6ccccc6n2c5c31)C(=O)NC4 [PKC412 (midostaurin), midostaurin]				effect on cell cycle (MV4–11 [1]): did not affect cell cycle pattern; effect on cell cycle (Molm13): did not affect cell cycle pattern
CCc1nc(C(N)=O)c(Nc2ccc(N3CCC(N4CCN(C)CC4)CC3)c(OC)c2)nc1NC1CCOCC1 [gilteritinib]				IC50 (c-Kit): 230 nM
